According to patent publication US20200411135A1, “Neoantigen Identification with Pan-Allele Models” (Gritstone Oncology, Inc., priority 2018, published 2020):
Peptide text beside a SMILES is read from it.

system: in vitro expanded PBMCs (neoantigen-reactive T-cells) from NSCLC patients; test: IFN-gamma ELISpot on in vitro stimulated (IVS) patient PBMCs with patient-specific neoantigen peptides and peptide pools; assay type: cell-based, human; conditions: patient PBMCs after 14 days IVS; >2-fold increase above DMSO background considered positive
Protocol: To do so, archival FFPE tumor biopsies and 5-30 ml of peripheral blood were analyzed from 9 patients with metastatic NSCLC undergoing anti-PD(L)1 therapy (Supplementary Table 1: Patient demographics and treatment information for N=9 patients studied in FIGS. 26A-C. Key fields include tumor stage and subtype, anti-PD1 therapy received, and summary of NGS results.). […] The full MS model was applied to prioritize 20 neoepitopes per patient for testing against pre-existing anti-tumor T-cell responses. To focus the analysis on likely CD8 responses, the prioritized peptides were synthesized as 8-11mer minimal epitopes (Methods), and then peripheral blood mononuclear cells (PBMCs) were cultured with the synthesized peptides in short in vitro stimulation (IVS) cultures to expand neoantigen-reactive T-cells (Supplementary Table 2). After two weeks the presence of antigen-specific T-cells was assessed using IFN-gamma ELISpot against the prioritized neoepitopes. In seven patients for whom sufficient PBMCs were available, separate experiments were also performed to fully or partially deconvolve the specific antigens recognized. The results are depicted in FIGS. 26A-C and 27A-30.
FIG. 26A depicts detection of T-cell responses to patient-specific neoantigen peptide pools for nine patients. For each patient, predicted neoantigens were combined into 2 pools of 10 peptides each according to model ranking and any sequence homologies (homologous peptides were separated into different pools). Then, for each patient, the in vitro expanded PBMCs for the patient were stimulated with the 2 patient-specific neoantigen peptide pools in IFN-gamma ELISpot. Data in FIG. 26A are presented as spot forming units (SFU) per […] plated cells with background (corresponding DMSO negative controls) subtracted. Responses of single wells (patients 1-038-001, CU02, CU03 and 1-050-001) or replicates with mean and standard deviation (all other patients) against cognate peptide pools #1 and #2 are shown for patients 1-038-001, 1-050-001, 1-001-002, CU04, 1-024-001, 1-024-002 and CU05. For patients CU02 and CU03, cell numbers allowed testing against specific peptide pool #1 only. Samples with values >2-fold increase above background were considered positive and are designated with a star (responsive donors include patients 1-038-001, CU04, 1-024-001, 1-024-002, and CU02). Unresponsive donors include patients 1-050-001, 1-001-002, CU05, and CU03. […] depicts photographs of ELISpot wells with in vitro expanded PBMCs from patient CU04, stimulated in IFN-gamma ELISpot with DMSO negative control, PHA positive control, CU04-specific neoantigen peptide pool #1, CU04-specific peptide 1, CU04-specific peptide 6, and CU04-specific peptide 8.
Pre-existing T-cells from healthy donor or patient samples were expanded in the presence of cognate peptides and IL-2 in a similar approach to that applied by Ott el al.^81 Briefly, thawed PBMCs were rested overnight and stimulated in the presence of peptide pools (10 μM per peptide, 10 peptides per pool) in ImmunoCult™-XF T-cell Expansion Medium ([…] Technologies) with 10 IU/ml rhIL-2 (R&D Systems Inc., Minneapolis, Minn.) for 14 days in 24-well tissue culture plates. Cells were seeded at 2×10^6 cells/well and fed every 2-3 days by replacing 2/3 of the culture media.
Detection of IFNγ-producing T-cells was performed by ELISpot assay^142. […]

| SMILES | T-cell response / recognition in IFN-gamma ELISpot |
| --- | --- |
| CC(C)[C@H](NC(=O)[C@H](CCC(N)=O)NC(=O)[C@@H](NC(=O)[C@H](CO)NC(=O)[C@@H](NC(=O)[C@H](CC(=O)O)NC(=O)[C@@H](N)CCC(N)=O)C(C)C)C(C)C)C(=O)N[C@@H](CCC(=O)O)C(=O)N[C@@H](CCCNC(=N)N)C(=O)O (H-QDVSVQVER-OH; N-terminus and C-terminus assumed) | peptide-specific T-cell response was deconvolved |
| CC[C@H](C)[C@H](NC(=O)[C@H](CC(N)=O)NC(=O)[C@H](CCC(=O)O)NC(=O)[C@@H](N)CC(=O)O)C(=O)N[C@H](C(=O)N[C@H](C(=O)N[C@H](C(=O)N[C@@H](CCC(N)=O)C(=O)N[C@@H](Cc1ccccc1)C(=O)O)[C@@H](C)CC)[C@@H](C)O)[C@@H](C)O (H-DENITTIQF-OH; N-terminus and C-terminus assumed) | peptide-specific T-cell response was deconvolved |
| CC(C)[C@H](NC(=O)[C@@H](NC(=O)[C@@H](N)CC(=O)O)[C@@H](C)O)C(=O)N[C@@H](CCC(=O)O)C(=O)N[C@@H](Cc1ccc(O)cc1)C(=O)N1CCC[C@H]1C(=O)N[C@@H](Cc1ccc(O)cc1)C(=O)N[C@H](C(=O)N[C@@H](CO)C(=O)N[C@@H](Cc1ccccc1)C(=O)O)[C@@H](C)O (H-DTVEYPYTSF-OH; N-terminus and C-terminus assumed) | peptide-specific T-cell response was deconvolved |
| CSCC[C@H](NC(=O)[C@@H](NC(=O)[C@H](CC(C)C)NC(=O)[C@@H](NC(=O)[C@H](C)NC(=O)[C@H](C)NC(=O)[C@H](CC(=O)O)NC(=O)[C@H](C)NC(=O)[C@@H](NC(=O)[C@@H](N)CCC(=O)O)C(C)C)[C@@H](C)O)[C@@H](C)O)C(=O)O (H-EVADAATLTM-OH; N-terminus and C-terminus assumed) | peptide-specific T-cell response was deconvolved |
| CC(C)C[C@H](NC(=O)[C@@H](NC(=O)[C@H](CC(=O)O)NC(=O)[C@@H](NC(=O)[C@H](CC(=O)O)NC(=O)[C@H](CCCCN)NC(=O)[C@H](CCCCN)NC(=O)[C@@H](NC(=O)CN)[C@@H](C)O)C(C)C)C(C)C)C(=O)N[C@@H](CCCCN)C(=O)O (H-GTKKDVDVLK-OH; N-terminus and C-terminus assumed) | recognized by CD8 T-cells |
